{"source": "patent US11518755B2", "about": "“Stable solutions of multicyclic antidepressants” (Leyden Technologies B.V., priority 2017, dated 2022)", "experiment": "Solubility of clozapine in different solvent systems (excess clozapine, shaken 24 hours, HPLC)", "format": "physicochemical", "description": "For clozapine, solutions of 20 mg/mL or more are preferred for oral administration of the solution. For soft gel capsules an even higher concentration is preferable. Therefore, a solubility study for clozapine was performed. An excess of clozapine was weighed in a HPLC vial and 1.0 mL of various solvent systems was added. Following, the mixture was placed on a mechanical shaker for 24 hours at 200 RPM and analysed by HPLC for clozapine content.", "data": [{"smiles": "CN1CCN(C2=Nc3cc(Cl)ccc3Nc3ccccc32)CC1", "note": "[Clozapine, 8-Chloro-11-(4-methylpiperazin-1-yl)-5H-dibenzo[b,e][1,4]diazepine]", "values": [{"measurement": "clozapine content after 24 hours", "setting": "solvent system: 0.1% acetic acid in water", "value": 4.7, "unit": "mg/mL"}, {"measurement": "clozapine content after 24 hours", "setting": "solvent system: 1% acetic acid in water", "value": 38.1, "unit": "mg/mL"}, {"measurement": "clozapine content after 24 hours", "setting": "solvent system: 1% citric acid in water", "value": 27.6, "unit": "mg/mL"}, {"measurement": "clozapine content after 24 hours", "setting": "solvent system: 5% Transcutol P in PEG400", "value": 91.8, "unit": "mg/mL"}, {"measurement": "clozapine content after 24 hours", "setting": "solvent system: 5% acetic acid in water", "value": 51.5, "unit": "mg/mL"}, {"measurement": "clozapine content after 24 hours", "setting": "solvent system: 5% citric acid in water", "value": 34.2, "unit": "mg/mL"}, {"measurement": "clozapine content after 24 hours", "setting": "solvent system: 10% Transcutol P in PEG400", "value": 91.3, "unit": "mg/mL"}, {"measurement": "clozapine content after 24 hours", "setting": "solvent system: 10% acetic acid in water", "value": 59.8, "unit": "mg/mL"}, {"measurement": "clozapine content after 24 hours", "setting": "solvent system: 10% citric acid in water", "value": 50.7, "unit": "mg/mL"}, {"measurement": "clozapine content after 24 hours", "setting": "solvent system: 20% Kolliphor RH40/PEG400 (10:90)", "value": 72.8, "unit": "mg/mL"}, {"measurement": "clozapine content after 24 hours", "setting": "solvent system: 20% Transcutol P in PEG400", "value": 99.5, "unit": "mg/mL"}, {"measurement": "clozapine content after 24 hours", "setting": "solvent system: 20% kolliphor RH40 in water", "value": 7.4, "unit": "mg/mL"}, {"measurement": "clozapine content after 24 hours", "setting": "solvent system: 40% corn oil in miglyol", "value": 8.4, "unit": "mg/mL"}, {"measurement": "clozapine content after 24 hours", "setting": "solvent system: 50% solutol in water", "value": 17.8, "unit": "mg/mL"}, {"measurement": "clozapine content after 24 hours", "setting": "solvent system: 50% solutol/PEG400 (10:90)", "value": 81.6, "unit": "mg/mL"}, {"measurement": "clozapine content after 24 hours", "setting": "solvent system: 100% Transcutol P", "value": 151.3, "unit": "mg/mL"}, {"measurement": "clozapine content after 24 hours", "setting": "solvent system: Caprylocaproyl macrogol-8 glycerides (Labrasol ®)", "value": 34.0, "unit": "mg/mL"}, {"measurement": "clozapine content after 24 hours", "setting": "solvent system: Citrate buffer pH 3.4", "value": 57.2, "unit": "mg/mL"}, {"measurement": "clozapine content after 24 hours", "setting": "solvent system: Citrate buffer pH 3.7", "value": 44.0, "unit": "mg/mL"}, {"measurement": "clozapine content after 24 hours", "setting": "solvent system: Citrate buffer pH 4.0", "value": 34.3, "unit": "mg/mL"}, {"measurement": "clozapine content after 24 hours", "setting": "solvent system: Citrate buffer pH 4.7", "value": 19.9, "unit": "mg/mL"}, {"measurement": "clozapine content after 24 hours", "setting": "solvent system: Corn oil", "value": 5.1, "unit": "mg/mL"}, {"measurement": "clozapine content after 24 hours", "setting": "solvent system: N,N′-dimethyl acetamide (DMA)", "value": 106.8, "unit": "mg/mL"}, {"measurement": "clozapine content after 24 hours", "setting": "solvent system: N-methyl-2-pyrrolydone (NMP)", "value": 409.7, "unit": "mg/mL"}, {"measurement": "clozapine content after 24 hours", "setting": "solvent system: PEG200", "value": 81.8, "unit": "mg/mL"}, {"measurement": "clozapine content after 24 hours", "setting": "solvent system: PEG400", "value": 77.0, "unit": "mg/mL"}, {"measurement": "clozapine content after 24 hours", "setting": "solvent system: PEG400/34 mmol Citrate buffer, 20:80 (V/V)", "value": 52.7, "unit": "mg/mL"}, {"measurement": "clozapine content after 24 hours", "setting": "solvent system: PEG400/34 mmol Citrate buffer, 40:60 (V/V)", "value": 52.3, "unit": "mg/mL"}, {"measurement": "clozapine content after 24 hours", "setting": "solvent system: PEG400/34 mmol Citrate buffer, 60:40 (V/V)", "value": 47.6, "unit": "mg/mL"}, {"measurement": "clozapine content after 24 hours", "setting": "solvent system: PEG400/34 mmol Citrate buffer, 80:20 (V/V)", "value": 49.8, "unit": "mg/mL"}, {"measurement": "clozapine content after 24 hours", "setting": "solvent system: PEG400/Citrate buffer pH 4.0, 50:50 (V/V)", "value": 33.4, "unit": "mg/mL"}, {"measurement": "clozapine content after 24 hours", "setting": "solvent system: PEG400/Citrate buffer pH 4.0, 60:40 (V/V)", "value": 29.6, "unit": "mg/mL"}, {"measurement": "clozapine content after 24 hours", "setting": "solvent system: PEG400/Citrate buffer pH 4.0, 70:30 (V/V)", "value": 32.1, "unit": "mg/mL"}, {"measurement": "clozapine content after 24 hours", "setting": "solvent system: PEG400/Citrate buffer pH 4.0, 80:20 (V/V)", "value": 44.6, "unit": "mg/mL"}, {"measurement": "clozapine content after 24 hours", "setting": "solvent system: PEG400/Citrate buffer pH 4.0, 90:10 (V/V)", "value": 56.2, "unit": "mg/mL"}, {"measurement": "clozapine content after 24 hours", "setting": "solvent system: PEG400/water (50:50)", "value": 2.3, "unit": "mg/mL"}, {"measurement": "clozapine content after 24 hours", "setting": "solvent system: PEG400/water (60:40)", "value": 6.5, "unit": "mg/mL"}, {"measurement": "clozapine content after 24 hours", "setting": "solvent system: PEG400/water (70:30)", "value": 14.0, "unit": "mg/mL"}, {"measurement": "clozapine content after 24 hours", "setting": "solvent system: PEG400/water (80:20)", "value": 31.1, "unit": "mg/mL"}, {"measurement": "clozapine content after 24 hours", "setting": "solvent system: PEG600/water (90:10)", "value": 65.2, "unit": "mg/mL"}, {"measurement": "clozapine content after 24 hours", "setting": "solvent system: ethanol", "value": 33.9, "unit": "mg/mL"}, {"measurement": "clozapine content after 24 hours", "setting": "solvent system: glycerol", "value": 0.5, "unit": "mg/mL"}, {"measurement": "clozapine content after 24 hours", "setting": "solvent system: miglyol", "value": 10.3, "unit": "mg/mL"}, {"measurement": "clozapine content after 24 hours", "setting": "solvent system: water", "value": 0.3, "unit": "mg/mL"}]}]}
